US20250326708A1, “LONG-ACTING SPLEEN-TARGETING CATIONIC LIPID COMPOUND COMPRISING BENZENE RING STRUCTURE, COMPOSITION COMPRISING SAME, AND USE THEREOF” (Beijing Youcarekechuang Pharmaceutical Technology Co., Ltd., priority 2024, published 2025)
Where “and” joins values, the source holds several entries; their conditions need not be identical. Identical values can stand only once.

How the values were obtained:
293T cells [1] = test: Cell viability assay (CCK-8) with LNP preparations of Fluc-mRNA; assay type: cell-based
Description: (§1) Cell recovery and passage: 293T cells were recovered and cultured in culture dishes. The cells were passaged until the required number of cells was obtained.
(§2) Seeding plates: The cells in culture dishes were digested and counted, then seeded in a 96-well plate at 10,000 cells per well and seeded in a 12-well plate at 150,000 cells per well. The cells were cultured overnight until cell adhesion.
(§3) The cationic lipids listed in Table 2 were each mixed with DSPC (AVT (Shanghai) Pharmaceutical Technology Co., Ltd.), cholesterol (AVT (Shanghai) Pharmaceutical Technology Co., Ltd.), and DMG-PEG2000 in a molar ratio of 49:10:39.5:1.5 and dissolved in ethanol to prepare ethanol lipid solutions. Using the ethanol injection method, the ethanol lipid solutions were quickly added to a citrate buffer (pH between 4 and 5), and vortexed for 30 seconds for later use. eGFP-mRNA (purchased from Shanghai BioHub Biotechnology Co., Ltd.), Fluc-mRNA (purchased from Shanghai BioHub Biotechnology Co., Ltd.), or Cy5 fluorescently labeled Leqvio (purchased from Sangon Biotech (Shanghai) Co., Ltd.) was diluted in a citrate buffer (pH between 4 and 5) to obtain an mRNA aqueous solution. A certain volume of the lipid solution and the mRNA aqueous solution were mixed to prepare liposomes at a total lipid-to-mRNA weight ratio of 15:1. The mixtures were sonicated at 25° C. for 15 minutes (ultrasonic frequency: 40 kHz, ultrasonic power: 800 W). The resulting liposomes were diluted 10-fold with PBS, followed by ultrafiltration using a 300 kDa ultrafiltration tube to remove ethanol. After adjusting the volume with PBS, LNP preparations encapsulating eGFP-mRNA or Fluc-mRNA were obtained, using cationic lipids, DSPC, cholesterol, and DMG-PEG2000 at a molar ratio of 49:10:39.5:1.5.
(§4) Cell recovery and passage: The method was the same as described in Example 3.
(§5) Seeding plates: The method was the same as described in Example 3.
LNP preparations containing 1.5 μg of Fluc-mRNA (with the vector components of the LNP preparations of cationic lipids, DSPC, cholesterol, and DMG-PEG2000 in a molar ratio of 49:10:39.5:1.5, where the cationic lipids are those listed in Table 1) were added to the cell culture medium in a 96-well plate. After 24 hours of continued culture, 10 μL of CCK-8 solution was added to each well, and the culture plate was incubated in an incubator for 1 hour.

293T cells [2] = test: Fluorescence detection of Fluc-mRNA (transfection efficiency) of LNP preparations; assay type: cell-based; settings: Fluc-mRNA LNP
Description: as §1, §2, §3, §4, §5
LNP preparations containing 0.3 μg of Fluc-mRNA (with the vector components of the LNP preparations of cationic lipids, DSPC, cholesterol, and DMG-PEG2000 in a molar ratio of 49:10:39.5:1.5, where the cationic lipids are those listed in Table 1) were added to the cell culture medium in a 96-well plate. After 24 hours of continued culture, the corresponding reagents were added according to the instructions in the Gaussia Luciferase Assay Kit. Fluorescence intensity in each well was detected using the IVIS fluorescence detection system. The transfection efficiency of LNP preparations prepared with a series of cationic lipid compounds designed in the present disclosure, as well as cationic lipids from the prior art, including SM-102, HHMA, MC3, compound 7, and I-1, is shown in Table 4.

female BALB/C mice [3] = test: Expression of delivered mRNA in mice in vivo (IVIS in vivo imaging); settings: 10 μg Fluc-mRNA via tail vein
Description: LNP preparations containing 10 μg of Fluc-mRNA were injected via the tail vein into female BALB/C mice (4 to 6 weeks old, weighing 17 to 19 g). At specified time points after administration (6 h, 24 h, 48 h, and 7 d), the mice were intraperitoneally injected with fluorescent imaging substrates and allowed to move freely for 5 minutes. The average radiation intensity (corresponding to fluorescence intensity) of proteins expressed by the mRNA delivered by the LNP preparations in the mice in vivo was then detected using the IVIS Spectrum small-animal in vivo imaging system.

[4] = Particle size and polydispersity index (PDI) of lipid nanoparticles, dynamic light scattering; assay type: physicochemical; settings: LNP preparation with the named cationic lipid; 90° scattering angle, 25° C
Source text: as §3
The particle size and polydispersity index (PDI) were measured using dynamic light scattering with a Malvern laser diffraction particle size analyzer.
10 μL of liposome solution was diluted to 1 mL with RNase-free deionized water and added to the sample cell. Each sample was measured three times. The measurement conditions were as follows: 90° scattering angle, 25° C.

female BALB/C mice [5] = test: Expression of delivered mRNA in different organs of mice (organ imaging); assay type: in vivo
Description: LNP preparations containing 5 μg of Fluc-mRNA were subcutaneously injected into female BALB/C mice (4 to 6 weeks old, weighing 17 to 19 g). At specified time points after administration (6 h), the mice were intraperitoneally injected with fluorescent imaging substrates and allowed to move freely for 5 minutes. The average radiation intensity (corresponding to fluorescence intensity) of proteins expressed by the mRNA delivered by the LNP preparations in the mice in vivo was then detected using the IVIS Spectrum small-animal in vivo imaging system. After sampling, the mice were killed by cervical dislocation and dissected, and the internal organs: heart, liver, spleen, lung, kidney, and lymph of mice were accurately isolated. The average radiation intensity (corresponding to fluorescence intensity) of proteins expressed by the mRNA delivered by the LNP preparations in various organs of mice was then detected using the IVIS Spectrum small-animal in vivo imaging system.

[6] = 6 hours after 5 μg Fluc-mRNA subcutaneously

## CCCCCCCCCCC(CCCCCCCC)COC(=O)CCCCCNC(CO)(CO)CCc1ccc(CCCCCCCC)cc1 (centres unmarked) [YK-912, 2-octyldodecyl 6-((1-hydroxy-2-(hydroxymethyl)-4-(4-octylphenyl)butan-2-yl)amino) hexanoate]
293T cells [1]; LNP with 1.5 μg Fluc-mRNA, 24 hours, CCK-8
  Cell viability: 87%
293T cells [1]; difference vs YK-901
  Cell viability higher than that of YK-901: 29%
293T cells [1]; difference vs YK-902
  Cell viability higher than that of YK-902: 51%
293T cells [1]; difference vs YK-903
  Cell viability higher than that of YK-903: 40%
293T cells [1]; difference vs YK-904
  Cell viability higher than that of YK-904: 35%
293T cells [1]; difference vs YK-905
  Cell viability higher than that of YK-905: 36%
293T cells [1]; difference vs YK-911
  Cell viability higher than that of YK-911: 25%
293T cells [2]; vs HHMA
  Cellular transfection efficiency, times that of HHMA: 5.65 times
293T cells [2]; vs I-1
  Cellular transfection efficiency, times that of I-1: 28.16 times
293T cells [2]; vs Lipofectamine 3000
  Cellular transfection efficiency, times that of Lipofectamine 3000: 6.77 times
293T cells [2]; vs MC3
  Cellular transfection efficiency, times that of MC3: 60.16 times
293T cells [2]; vs SM-102
  Cellular transfection efficiency, times that of SM-102: 4.00 times
293T cells [2]; vs YK-501
  Cellular transfection efficiency, times that of YK-501: 123.46 times
293T cells [2]; vs YK-506
  Cellular transfection efficiency, times that of YK-506: 8.73 times
293T cells [2]; vs YK-901
  Cellular transfection efficiency, times that of YK-901: 131 times and 131.47 times
293T cells [2]; vs YK-902
  Cellular transfection efficiency, times that of YK-902: 18.35 times
293T cells [2]; vs YK-903
  Cellular transfection efficiency, times that of YK-903: 228 times and 228.30 times
293T cells [2]; vs YK-904
  Cellular transfection efficiency, times that of YK-904: 45.65 times
293T cells [2]; vs YK-905
  Cellular transfection efficiency, times that of YK-905: 78.83 times
293T cells [2]; vs YK-911
  Cellular transfection efficiency, times that of YK-911: 4.39 times
293T cells [2]; vs compound 7
  Cellular transfection efficiency, times that of compound 7: 22.17 times
Female BALB/C mice [3]; 6 h
  Average radiation intensity, in vivo imaging: 7543664
Female BALB/C mice [3]; 24 h
  Average radiation intensity, in vivo imaging: 932533
Female BALB/C mice [3]; 48 h
  Average radiation intensity, in vivo imaging: 354363
Female BALB/C mice [3]; 7 d
  Average radiation intensity, in vivo imaging: 56756
[4]
  PDI: 9.5%
  Particle size: 123 nm
Female BALB/C mice [5]; [6]
  Average radiation intensity of mouse organs: Heart: 0
  Average radiation intensity of mouse organs: Kidney: 0
  Average radiation intensity of mouse organs: Lung: 0
  Average radiation intensity of mouse organs: Lymph: 0
  Average radiation intensity of mouse organs: Spleen: 175366
Female BALB/C mice [5]; spleen, 6 h, vs SM-102
  Expression level of mRNA in the spleen, times that of SM-102: 6.86 times
Female BALB/C mice [5]; spleen, 6 h, vs YK-501
  Expression level of mRNA in the spleen, times that of YK-501: 12.33 times
Female BALB/C mice [5]; spleen, 6 h, vs YK-506
  Expression level of mRNA in the spleen, times that of YK-506: 2.46 times
